Test results taken from paper PMC9146163, “Novel Au Carbene Complexes as Promising Multi-Target Agents in Breast Cancer Treatment” (Pharmaceuticals, 2022).
Entries after “also recorded” stand apart in the source; their conditions may differ. Like-named read-outs stand apart in the source and are kept apart here.

What was measured:
[1] = system: β-actin in MCF-10A cells; experiment: Actin immunofluorescence, MCF-10A; assay type: cell-based, human
Procedure: (§1) The MitoTracker Deep Red FM probe (MitoTracker Mitochondrion-Selective Probes, Invitrogen European Headquarters, Paisley, PA4 9RF, UK) was used for mitochondrial staining, as previously described. For immunofluorescence analysis, the cells were seeded and further processed, as reported by Iacopetta et al.. The primary antibodies used were: rabbit anti-β-Actin and vimentin (Santa Cruz Biotechnology, Dallas, TX, USA), mouse anti cytochrome c and NF-κB p65 (Abcam, Cambridge, UK), diluted 1:100 in bovine serum albumin (BSA) 2% overnight at 4 °C. The secondary antibodies were: Alexa Fluor® 488 conjugate goat-anti-rabbit and Alexa Fluor® 568 conjugate goat-anti-mouse (Thermo Fisher Scientific, MA, USA), diluted 1:500 and incubated for 2h at 37 °C. DAPI 0.2 μg/mL (Sigma Aldrich, Milan, Italy) was used for nuclei staining. […] All the images were acquired and processed using the LAS-X software.
E: Figure S1. Actin immunofluorescence studies in MCF-10A cells […]
Figure S1. Actin immunofluorescence studies. M CF-10A cells were treat ed with compounds 1 and […]
treatment, the cells were methanol fixed, incubated with primary and secondary antibodies, stained with DAPI and observed and imaged under the inverted fluorescence microscope at 20x […]
A: nuclear stain with DAPI (λex/λem = 350/460 nm); Panels B: β-actin ([…]); Panels C: show a merge. R epresentative fields are shown.

[2] = system: MCF-10A cells; experiment: TUNEL assay, MCF-10A; settings: IC50, 24 h
Procedure: TUNEL assay was employed to assess the cells’ apoptosis, following the manufacturer’s procedures (CF™488A TUNEL Assay Apoptosis Detection Kit, Biotium, Hayward, CA, USA). […] DAPI (Sigma, 0.2 µg/mL) was used for nuclei staining. A fluorescence microscope (Leica DM 6000) was used for fluorescence detection (20× magnification). All the images were processed using the LAS-X software. Images are representative of three independent experiments.
TUNEL assay in MCF-10A cells
Then they were exposed to the TdT enzyme and
visualized under a fluorescence microscope (20x magnification).

[3] = system: vimentin in MCF-10A cells; experiment: Vimentin expression (immunofluorescence, Western blot), MCF-10A; assay type: cell-based, human; settings: IC50 values, 24 h; immunofluorescence and Western blot quantification
Procedure: as §1
Protein lysates underwent the SDS-PAGE process, as already defined. […]
(CTRL) for 24 h. After treatment, the cells were further processed, observed and imaged under the inverted fluorescence microscope at 20x m agnification (for mo re details see Materi als and M ethods). […]
and processed as reported in the Experimental Section. […] (d) Western blots quantification carried out using […]

[4] = system: caspases 3/7, 8, and 9 in MCF-10A cells; experiment: Caspase-Glo assay, MCF-10A; assay type: cell-based, human; settings: IC50 values, 24 h; vs vehicle
Procedure: The activities of caspases 3/7, 8, and 9 were measured by using the Caspase-Glo Assay according to the manufacturer’s guidelines (Caspase-Glo 3/7, 8, and 9 Assay Systems, Promega Corporation, Madison, WI, USA), as already described. The luminescence was detected in a plate-reading luminometer (Synergy H1 Hybrid Reader, BioTek) for 30 min to 3 h (λex/em = 490/570 nm). Results were reported as signal-to-noise ratio (background was determined from the culture medium without cells). The experiments were performed in triplicate.
H: Figure S4. Caspases activity in MCF-10A cells
Caspase 3/7 Caspase 8 Caspase 9
Figure S4. Caspases activity.
between th e vehicl e-treated cells, us ed as control, and the cells treated with compounds 1 and 6. Both
The data are representative of […]

[5] = system: MCF-10A cells; experiment: MTT assay, normal MCF-10A; assay type: cell-based, human; settings: MTT; for IC50: 72 h, normal cells, mean ± SD, read-out: IC50 MCF-10A
Procedure: The five employed cell lines were purchased from American Type Culture Collection (ATCC, Manassas, VA, USA) and maintained as already reported. […] SkBr3 cells were maintained in DMEM high glucose, supplemented with 10% FBS and 100 μg/mL penicillin/streptomycin.
[…] Results are represented as percent (%) of basal and the IC50 values were calculated using GraphPad Prism 9 (GraphPad Software, La Jolla, CA, USA).

[6] = system: NF-κB in MCF-10A cells; experiment: NF-κB immunofluorescence, MCF-10A; assay type: cell-based, human
Procedure: as §1
L: Figure S6. NF-κB expression in MCF-10A cells
CTRL cells and in the cells exposed to compounds 1 and 6 NF-κB is localized within the cytoplasm and nucleus. Panels A, nuclear stain with DAPI (λex/em= 350/460 nm); panels B, Alexa Fluor CF 488 (λex/em= 490/515 nm); panels C, overlay channels. Images were acquired at 40x magnification and repres entative fields are shown.

[7] = system: cytochrome c in MCF-10A cells; experiment: Mitochondria staining and cytochrome c detection, MCF-10A; assay type: cell-based, human; settings: IC50 value, 24 h
Procedure: as §1
I: Figure S5. Mitochondria staining and cytochrome c detection in MCF-10A cells
Figure S5. Mitochondria staining and cytochrome c detection in MCF-10A cells. Figure S5.
Mitochondria staining and cytochrome c detection in MCF-10A cells. In th e CTRL cells as well as
Panels A, DAP I λex/em= 350/460 nm; Panels B, Alexa Fluor CF 488 λex/em=
490/515 nm; Panels C, MitoTracker Deep Red FM probe λex/em= 644/665 nm. Panels D: overlay
channels. Images were acquired at 40x magnification and representative fields are shown.

[8] = target: T1, Labeled Rabbit Muscle Actin (Oryctolagus cuniculus, UniProt P68135); experiment: In vitro actin depolymerization assay; assay type: biochemical; settings: 5 µM
T1 construct: purchased Abcam (Actin Polymerization/Depolymerization Assay Kit)
Procedure: The ability of the tested compounds to interfere with the actin polymerization and depolymerization reaction was measured using an Actin Polymerization/Depolymerization Assay Kit purchased from Abcam, following the manufacturer’s instructions. […] For the polymerization assay, reconstituted actin was mixed with supplemented Buffer G and samples in a white 96-well plate and then the polymerization reaction was induced with the addition of the Buffer P supplemented with 10 mM ATP. The solution was mixed and the data acquisition started. For the Actin Depolymerization Assay, supplemented Buffers P and G were mixed and incubated in a white 96-well plate at room temperature for one hour to polymerize the actin, protected from light. Then samples were added and the data acquisition started. Latrunculin A and Cytochalasin B were used as control molecules at a concentration of 5 μM. For both the assays, the assembly of actin filaments was determined by measuring the fluorescence (Ex/Em: 365/410 nm) in kinetic mode for 1 h at room temperature using a microplate reader.

Structure (SMILES)	actin organization in MCF-10A cells ([1]; 24 h, compounds at their IC50 value, LA 0.1 μM)	apoptosis (TUNEL), MCF-10A [2]	vimentin expression vs CTRL, MCF-10A [3]	caspases 3/7, 8 and 9 activity levels, MCF-10A [4]	IC50 [5]	cytotoxicity against the normal MCF-10A cells (in words) ([5]; up to the concentration of 200 μM)	NF-κB localization, MCF-10A [6]	cytochrome c localization, MCF-10A [7]	effect on already polymerized actin (in words) [8]	actin organization in MCF-10A cells [1]
Cn1ccn(CC([O-])c2ccccc2)[c]1=[Au+]=[c]1n(C)ccn1CC([O-])c1ccccc1.[Cl-].[Na+].[Na+] (centres unmarked) [Compound 1]	normal	No apoptosis was detected	not significant	No differences	> 200 µM	complete lack of cytotoxicity; also recorded: completely lack of cytotoxicity	localized within the cytoplasm and nucleus	within mitochondria	did not produce a significant decrease	–
CC(=O)[O-].Cn1c(Cl)c(Cl)n(CC(O)c2ccccc2)[c]1=[Au+]=[c]1n(C)c(Cl)c(Cl)n1CC(O)c1ccccc1 (centres unmarked) [Compound 6, Bis [4,5-dichloro-(N-methyl, N’(2-hydroxy-2-phenyl-ethyl)imidazole-2-ylidine]gold(I)] acetate]	–	No apoptosis was detected	not significant	No differences	24.4 ± 0.9 µM	–	localized within the cytoplasm and nucleus	within mitochondria	did not produce a significant decrease	normal
